Test results taken from the supplement of paper PMC5908809.

Assays:
[1] = system: normal NK cells expanded with K562-aAPC; assay: drug sensitivity score (DSS) (DSS units); higher = more sensitive; extreme values may be limits of the assay; conditions: 72 h; IL-2 2.5 ng/mL
Procedure: (§1)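 Drug sensitivity and resistance testing on K562-aAPC-expanded normal NK cells: 5 concentrations (10-fold steps over a 10,000-fold range), 72 h at 37 °C, viability by CellTiter-Glo normalised to DMSO and benzethonium chloride controls; DSS from the fitted curve.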

[2] = system: normal NK cells expanded with K562-aAPC; assay: percent inhibition of viability; higher = more inhibition; conditions: 72 h, IL-2 2.5 ng/mL
Procedure: as §1

[3] = system: SNK-6 (IL-2 2.5 ng/mL); assay: drug sensitivity score (DSS) (DSS units); higher = more sensitive; extreme values may be limits of the assay; conditions: 72 h
[4] = system: normal primary NK cells, pool 3 (3 donors) (IL-2 2.5 ng/mL); assay: as above; conditions: 72 h
[5] = system: KAI3 (IL-2 2.5 ng/mL); assay: as above; conditions: 72 h
[6] = system: NK-YS (IL-2 2.5 ng/mL); assay: as above; conditions: 72 h
[7] = system: normal primary NK cells, pool 1 (3 donors) (IL-2 2.5 ng/mL); assay: as above; conditions: 72 h
[8] = system: NKL (IL-2 2.5 ng/mL); assay: as above; conditions: 72 h
[9] = system: IMC-1 (IL-2 20 ng/mL); assay: as above; conditions: 72 h
[10] = system: DERL-7 (IL-2 2.5 ng/mL); assay: as above; conditions: 72 h
[11] = system: YT (IL-2 2.5 ng/mL); assay: as above; conditions: 72 h
[12] = system: normal primary NK cells, pool 1 (3 donors), resting (IL-2 0 ng/mL); assay: as above; conditions: 72 h
[13] = system: NK-92 (IL-2 2.5 ng/mL); assay: as above; conditions: 72 h
[14] = system: normal primary NK cells, pool 2 (3 donors) (IL-2 2.5 ng/mL); assay: as above; conditions: 72 h
[15] = system: KHYG-1 (IL-2 2.5 ng/mL); assay: as above; conditions: 72 h
[16] = system: SNK-6 (IL-2 2.5 ng/mL); assay: percent inhibition of viability; higher = more inhibition; conditions: 72 h
[17] = system: normal primary NK cells, pool 3 (3 donors) (IL-2 2.5 ng/mL); assay: as above; conditions: 72 h
[18] = system: KAI3 (IL-2 2.5 ng/mL); assay: as above; conditions: 72 h
[19] = system: NK-YS (IL-2 2.5 ng/mL); assay: as above; conditions: 72 h
[20] = system: normal primary NK cells, pool 1 (3 donors) (IL-2 2.5 ng/mL); assay: as above; conditions: 72 h
[21] = system: NKL (IL-2 2.5 ng/mL); assay: as above; conditions: 72 h
[22] = system: IMC-1 (IL-2 20 ng/mL); assay: as above; conditions: 72 h
[23] = system: DERL-7 (IL-2 2.5 ng/mL); assay: as above; conditions: 72 h
[24] = system: YT (IL-2 2.5 ng/mL); assay: as above; conditions: 72 h
[25] = system: normal primary NK cells, pool 1 (3 donors), resting (IL-2 0 ng/mL); assay: as above; conditions: 72 h
[26] = system: NK-92 (IL-2 2.5 ng/mL); assay: as above; conditions: 72 h
[27] = system: normal primary NK cells, pool 2 (3 donors) (IL-2 2.5 ng/mL); assay: as above; conditions: 72 h
[28] = system: KHYG-1 (IL-2 2.5 ng/mL); assay: as above; conditions: 72 h

C/C(=C\c1csc(C)n1)[C@@H]1C[C@@H]2O[C@]2(C)CCC[C@H](C)[C@H](O)[C@@H](C)C(=O)C(C)(C)[C@@H](O)CC(=O)O1 [Patupilone] (max concentration tested 1000 nM)
Conditions | drug sensitivity score
[1] | 17.1
[3] | 24.3
[4] | 0
[5] | 16.4
[6] | 17
[7] | 0.14
[8] | 21.7
[9] | 30.1
[10] | 31.1
[11] | 24.7
[12] | 0.55
[13] | 26.2
[14] | 0
[15] | 21.9

percent inhibition of viability [%]
Conditions | 0.1 nM | 1 nM | 10 nM | 100 nM | 1000 nM
[2] | -5.25 | -3.64 | 53.5 | 57.1 | 55.8
[16] | 5.42 | 5.23 | 75.5 | 72.6 | 69.5
[17] | -13 | -7.53 | 0.9 | 3.45 | 6.6
[18] | -13.1 | -4.34 | 44.2 | 60.6 | 50.5
[19] | -3.81 | -3.75 | 28.9 | 71.3 | 69.9
[20] | -9.75 | -4.17 | 10.3 | 5.4 | 6.51
[21] | -9.24 | -10.5 | 34.6 | 93.9 | 90.3
[22] | -0.59 | 0.29 | 97 | 99.9 | 99.2
[23] | -4.98 | 5.91 | 98.8 | 99.6 | 99.2
[24] | -3.08 | -3.77 | 59.4 | 97.9 | 96.7
[25] | -18.5 | -28.5 | 6.09 | 7.49 | 15.2
[26] | -21.3 | -3.29 | 72.4 | 99.8 | 97.7
[27] | 2.42 | -5.69 | 2.84 | 6.87 | 6.04
[28] | -3.34 | -8.41 | 25.7 | 104 | 102

CCOc1cc2ncc(C#N)c(Nc3ccc(F)c(Cl)c3)c2cc1NC(=O)/C=C/CN(C)C [Pelitinib] (max concentration tested 2500 nM)
Conditions | drug sensitivity score
[1] | 10.3
[3] | 16.3
[4] | 8.33
[5] | 9.6
[6] | 3.95
[7] | 9.9
[8] | 7.63
[9] | 4.58
[10] | 10.7
[11] | 4.06
[12] | 6.98
[13] | 7.76
[14] | 10.1
[15] | 9.44

percent inhibition of viability [%]
Conditions | 0.25 nM | 2.5 nM | 25 nM | 250 nM | 2500 nM
[2] | -1.17 | 1.75 | 2.79 | 36.6 | 99.5
[16] | 29.9 | 30.9 | 23.3 | 32.9 | 95.6
[17] | -8.11 | -2.18 | 2.55 | 19.3 | 94.4
[18] | -6.96 | -4.92 | 1.78 | 40.4 | 84.1
[19] | 0.78 | -5.84 | 0.53 | -1.43 | 73.7
[20] | 3.39 | -4.76 | 4.88 | 39 | 94.2
[21] | -12.4 | -7.42 | -0.44 | 15.2 | 92.2
[22] | -0.29 | 1.94 | 3.33 | -17.4 | 99.7
[23] | -4.83 | -5.06 | 2.43 | 41.3 | 99.9
[24] | 4.94 | 2.25 | 8.23 | 7.75 | 51.7
[25] | 4.48 | -8.29 | 4.76 | 14.7 | 82.3
[26] | -0.1 | -2.5 | 13 | 13.8 | 98.3
[27] | -10.8 | 5.08 | 7.69 | 43 | 91.3
[28] | 1.04 | 0.45 | 7.11 | 25.7 | 101

O=C(CCBr)N1CCN(C(=O)CCBr)CC1 [Pipobroman] (max concentration tested 10000 nM)
Conditions | drug sensitivity score
[1] | 1.23
[3] | 0
[4] | 0.45
[5] | 0.46
[6] | 1.85
[7] | 0
[8] | 1.54
[9] | 0.19
[10] | 0
[11] | 0.07
[12] | 6.82
[13] | 1.49
[14] | 0
[15] | 0.42

percent inhibition of viability [%]
Conditions | 1 nM | 10 nM | 100 nM | 1000 nM | 10000 nM
[2] | -6.43 | -6.37 | -5.59 | 7.79 | 18.1
[16] | -14.3 | -17.7 | -17.4 | -17.5 | -6.39
[17] | -9.04 | -2.96 | 2.05 | 2.18 | 15.1
[18] | -6.26 | -3.77 | 3.05 | 9.16 | 13.5
[19] | -6.73 | -7.25 | -3.41 | 11.6 | 20.9
[20] | 1.85 | -2.09 | 11.8 | -0.73 | 2.49
[21] | -27.2 | -17.8 | -14.3 | 16.6 | 15.7
[22] | -6.08 | -8.46 | -2.84 | 4.89 | 11.6
[23] | -7.31 | -1.37 | 2 | -0.47 | -5.96
[24] | -7.45 | -10.7 | -5.22 | 0.28 | 12.2
[25] | 2.78 | -3.45 | 22.7 | 19.1 | 26.8
[26] | -22.2 | -18.9 | -1.01 | 4.98 | 22.7
[27] | -5.41 | -3.61 | 2.8 | 4.47 | 2.02
[28] | -9.07 | -13.9 | -7.89 | 3.77 | 13.7

Nc1cccc2c1C(=O)N(C1CCC(=O)NC1=O)C2=O (stereo not given) [Pomalidomide] (max concentration tested 10000 nM)
Conditions | drug sensitivity score
[1] | 0
[3] | 0.99
[4] | 0
[5] | 0
[6] | 0
[7] | 0
[8] | 3.93
[9] | 0
[10] | 0
[11] | 0
[12] | 0
[13] | 0
[14] | 0
[15] | 0

percent inhibition of viability [%]
Conditions | 1 nM | 10 nM | 100 nM | 1000 nM | 10000 nM
[2] | -10.8 | -9.91 | -9.37 | -11.8 | -8.13
[16] | -0.98 | 3.29 | 13.5 | -10.9 | 31.7
[17] | -16 | 7.94 | -8.83 | -7.7 | -5.51
[18] | -0.58 | -8.97 | -7.97 | -13.6 | -12.9
[19] | -3.69 | -2.34 | -5.2 | -2.26 | -0.5
[20] | -3.59 | -0.54 | -10.1 | 9.65 | 3.39
[21] | -6.14 | -8.75 | 7.72 | 18.5 | 21.2
[22] | -4 | -1.04 | -2.22 | -4.13 | -2.92
[23] | -0.13 | -4.4 | 15.2 | -7.7 | -4.17
[24] | -5.53 | -2.96 | -0.67 | -5.5 | -0.71
[25] | -1.02 | -19.1 | -32.7 | -20.7 | -23.7
[26] | -1.19 | -10.2 | -3.35 | -12.4 | -16.6
[27] | -13.3 | 1.17 | -2.18 | -2.49 | -1.88
[28] | -4.54 | -1.13 | -5.7 | -4.26 | -0.94

C[C@]12C=CC(=O)C=C1CC[C@@H]1[C@@H]2C(=O)C[C@@]2(C)[C@H]1CC[C@]2(O)C(=O)CO [Prednisone] (max concentration tested 10000 nM)
Conditions | drug sensitivity score
[1] | 1.61
[3] | 2.13
[4] | 0
[5] | 0.51
[6] | 0.36
[7] | 0
[8] | 0.06
[9] | 0.5
[10] | 0
[11] | 8.17
[12] | 0.01
[13] | 0.06
[14] | 0
[15] | 0.05

percent inhibition of viability [%]
Conditions | 1 nM | 10 nM | 100 nM | 1000 nM | 10000 nM
[2] | -4.43 | -1.43 | -0.64 | 6.95 | 22
[16] | -5.48 | 15 | 3.96 | 19.8 | 15
[17] | -8.77 | -7.64 | -1.51 | -4.94 | 0.45
[18] | -0.89 | -0.49 | 8.97 | -3.86 | 21.4
[19] | 1.7 | 1.75 | 7.19 | 1.77 | 14.5
[20] | 4.02 | -6.96 | 4.16 | -9.18 | 9.23
[21] | -9.04 | 4.61 | -4.53 | 4.17 | 10.7
[22] | 0.28 | -0.37 | 3.06 | 4.05 | 15.4
[23] | -1.82 | -3.2 | -10.6 | 1.18 | -9
[24] | 1.47 | 5.85 | 29.5 | 18.9 | 32.6
[25] | 11.6 | -5.07 | 6.95 | -4.28 | 11.9
[26] | -5.87 | -0.1 | 11.4 | -3.86 | 13.6
[27] | -7.97 | -0.38 | -4.79 | -8.7 | -1.49
[28] | -2.3 | -2.14 | 4.01 | 1.48 | 11.2
